In ChEMBL document CHEMBL6096628, “Discovery of a Highly Potent and Selective BRD9 PROTAC Degrader Based on E3 Binder Investigation for the Treatment of Hematological Tumors” (J Med Chem, 2024):
Activity calls are given as the source filed them. The rule behind the calls is not given here.

Assays:
MV4-11 [1] = experiment: Upregulation of C-myc expression level in human MV4-11 cells at 0.1 to 10 nM measured after 24 to 48 hrs by Western blot analysis; format: functional, cell-based; conditions: dose 0.1-10 nM, time 24-48 hrs
MV4-11 [2] = experiment: Induction of apoptosis in human MV4-11 cells assessed as viable cells at 0.1 nM incubated for 48 hrs by Annexin V-FITC/PI staining based flow cytometric analysis (reference value: 94.80 %); format: functional; conditions: read-out: Activity
SU-DHL-2 = experiment: Antiproliferative activity against human SU-DHL-2 cells assessed as inhibition of cell growth incubated for 7 days by MTS reagent based assay; format: functional; conditions: SU-DHL-2, 168 h
MV4-11 [3] = experiment: Antitumor activity against human MV4-11 cells xenografted in Balb/c nude mouse assessed as tumor growth inhibition at 20 mg/kg, ip administered once daily for 20 days relative to control; format: functional; conditions: MV4-11, 480 h, time 20 day, read-out: TGI
MV4-11 [4] = experiment: Downregulation of CELF1 protein expression in human MV4-11 cells by proteomic analysis; format: functional, cell-based
MV4-11 [5] = experiment: Induction of apoptosis in human MV4-11 cells assessed as necrotic cells at 1 nM incubated for 48 hrs by Annexin V-FITC/PI staining based flow cytometric analysis (reference value: 0.07 %); format: functional
OCI-Ly10 [6] = experiment: Antitumor activity against human OCI-Ly10 cells xenografted in Balb/c nude mouse assessed as test to control ratio at 30 mg/kg, po administered once daily for 18 days relative to control; format: functional; conditions: time 18 day
OCI-Ly10 [7] = experiment: Antitumor activity against human OCI-Ly10 cells xenografted in Balb/c nude mouse assessed as tumor mass at 30 mg/kg, po administered once daily for 18 days (reference value: 1.12 +/- 0.44 g); format: functional; conditions: time 18 day
[8] = molecular target: T1, Protein cereblon/Bromodomain-containing protein 9 (Homo sapiens, UniProt Q9H8M2+Q96SW2); experiment: PROTAC activity at CRBN/BRD9 in human MV4-11 cells assessed as induction of BRD9 degradation at 0.33 nM measured within 2 hrs by Western blot analysis; format: cell-based
T1 sequence (Q96SW2 whole entry, looked up): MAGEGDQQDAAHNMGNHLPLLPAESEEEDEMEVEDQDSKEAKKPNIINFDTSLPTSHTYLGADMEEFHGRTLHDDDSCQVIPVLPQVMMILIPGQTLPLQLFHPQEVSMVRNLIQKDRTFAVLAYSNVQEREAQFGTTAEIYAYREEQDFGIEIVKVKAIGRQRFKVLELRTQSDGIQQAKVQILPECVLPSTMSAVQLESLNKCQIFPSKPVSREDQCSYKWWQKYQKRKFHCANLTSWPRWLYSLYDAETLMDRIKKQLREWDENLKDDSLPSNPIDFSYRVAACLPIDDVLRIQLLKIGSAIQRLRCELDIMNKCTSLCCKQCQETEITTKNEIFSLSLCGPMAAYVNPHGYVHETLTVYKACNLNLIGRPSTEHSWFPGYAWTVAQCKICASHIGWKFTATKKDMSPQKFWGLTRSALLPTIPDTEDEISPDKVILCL
T1 sequence (Q9H8M2 whole entry, looked up): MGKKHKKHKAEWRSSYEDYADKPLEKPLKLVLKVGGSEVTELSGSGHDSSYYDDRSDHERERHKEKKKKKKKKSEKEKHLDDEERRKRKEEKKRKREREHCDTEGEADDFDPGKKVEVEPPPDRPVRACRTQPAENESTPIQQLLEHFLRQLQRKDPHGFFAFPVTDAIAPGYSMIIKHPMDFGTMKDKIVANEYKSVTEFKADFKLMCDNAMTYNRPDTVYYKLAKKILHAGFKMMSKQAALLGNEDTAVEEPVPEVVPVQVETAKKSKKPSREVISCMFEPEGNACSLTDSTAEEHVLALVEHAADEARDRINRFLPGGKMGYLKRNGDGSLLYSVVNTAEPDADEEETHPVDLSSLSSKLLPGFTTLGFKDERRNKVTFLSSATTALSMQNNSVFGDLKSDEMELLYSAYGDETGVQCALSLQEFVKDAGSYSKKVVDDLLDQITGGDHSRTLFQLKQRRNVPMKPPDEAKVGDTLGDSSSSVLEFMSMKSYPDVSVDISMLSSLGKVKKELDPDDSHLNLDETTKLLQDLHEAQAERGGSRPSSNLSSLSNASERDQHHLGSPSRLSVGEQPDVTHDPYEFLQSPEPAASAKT

MV4-11 [9] = experiment: Induction of apoptosis in human MV4-11 cells assessed as late apoptotic cells at 1 nM incubated for 48 hrs by Annexin V-FITC/PI staining based flow cytometric analysis (reference value: 0.91 %); format: functional
MV4-11 [10] = experiment: Downregulation of beta-catenin expression level in human MV4-11 cells at 0.1 to 10 nM measured after 24 to 48 hrs by Western blot analysis; format: functional, cell-based; conditions: dose 0.1-10 nM, time 24-48 hrs
[11] = molecular target: T1, Protein cereblon/Bromodomain-containing protein 9; experiment: PROTAC activity at CRBN/BRD9 in human MV4-11 cells assessed as induction of BRD9 degradation by measuring maximal efficacy by Western blot analysis relative to control; format: cell-based
MV4-11 [12] = experiment: Antitumor activity against human MV4-11 cells xenografted in Balb/c nude mouse assessed as tumor volume at 20 mg/kg, ip administered once daily for 20 days (reference value: 1187 +/- 449 mm^3); format: functional; conditions: time 20 day
[13] = molecular target: T1, Protein cereblon/Bromodomain-containing protein 9; experiment: PROTAC activity at CRBN/BRD9 in human MV4-11 cells assessed as induction of BRD9 degradation at 0.33 nM by Western blot analysis relative to control; format: cell-based; conditions: time 0.5-24 hrs
MV4-11 [14] = experiment: Induction of GSPT1 degradation in human MV4-11 cells at 0.1 to 100 nM by Western blotting analysis; format: cell-based; conditions: dose 0.1-100 nM
[15] = molecular target: T1, Protein cereblon/Bromodomain-containing protein 9; experiment: PROTAC activity at CRBN/BRD9 in human MV4-11 cells assessed as induction of BRD9 degradation at 10 nM by Western blot analysis relative to control; format: cell-based
MV4-11 [16] = experiment: Induction of apoptosis in human MV4-11 cells assessed as early apoptotic cells at 10 nM incubated for 48 hrs by Annexin V-FITC/PI staining based flow cytometric analysis (reference value: 4.22 %); format: functional
OCI-Ly10 [17] = experiment: Antitumor activity against human OCI-Ly10 cells xenografted in Balb/c nude mouse assessed as relative tumor volume at 30 mg/kg, po administered once daily for 18 days (reference value: 9.07 +/- 4.66); format: functional; conditions: time 18 day
[18] = Cmax in ICR mouse at 20 mg/kg, IG administered via gavage and measured after 24 hrs by LC-MS analysis; format: ADME, organism-based; conditions: in vivo, po
MV4-11 [19] = experiment: Downregulation of BRD9 protein expression in human MV4-11 cells by proteomic analysis; format: functional, cell-based
MV4-11 [20] = experiment: Antiproliferative activity against human MV4-11 cells assessed as inhibition of cell growth incubated for 7 days by MTS reagent based assay; format: functional; conditions: MV4-11, 168 h
[21] = molecular target: T1, Protein cereblon/Bromodomain-containing protein 9; experiment: PROTAC activity at CRBN/BRD9 in human MV4-11 cells assessed as induction of BRD9 degradation at 1 nM by Western blot analysis relative to control; format: cell-based
MV4-11 [22] = experiment: Induction of apoptosis in human MV4-11 cells assessed as necrotic cells at 0.01 nM incubated for 48 hrs by Annexin V-FITC/PI staining based flow cytometric analysis (reference value: 0.07 %); format: functional
Mus musculus [23] = experiment: Upregulation of BRD7 expression in Balb/c nude mouse tumor xenografted with human MV4-11 cells at 20 mg/kg, ip administered once daily for 20 days by Western blot analysis; format: functional, organism-based; conditions: time 20.0 day
MV4-11 [24] = experiment: Downregulation of TTK protein expression in human MV4-11 cells by proteomic analysis; format: functional, cell-based
Mus musculus [25] = experiment: Upregulation of C-myc expression in Balb/c nude mouse tumor xenografted with human MV4-11 cells at 20 mg/kg, ip administered once daily for 20 days by Western blot analysis; format: functional, organism-based; conditions: time 20.0 day
MV4-11 [26] = experiment: Antitumor activity against human MV4-11 cells xenografted in Balb/c nude mouse assessed as relative tumor volume at 20 mg/kg, ip administered once daily for 20 days (reference value: 7.85 +/- 3.69); format: functional; conditions: time 20 day
MV4-11 [27] = experiment: Induction of apoptosis in human MV4-11 cells assessed as early apoptotic cells at 0.1 nM incubated for 48 hrs by Annexin V-FITC/PI staining based flow cytometric analysis (reference value: 4.22 %); format: functional
MV4-11 [28] = experiment: Antitumor activity against human MV4-11 cells xenografted in Balb/c nude mouse assessed as tumor weight at 20 mg/kg, ip administered once daily for 20 days (reference value: 1.30 +/- 0.51 g); format: functional; conditions: time 20 day
U-937 = experiment: Antiproliferative activity against human U-937 cells assessed as inhibition of cell growth incubated for 7 days by MTS reagent based assay; format: functional; conditions: U-937, 168 h
[29] = molecular target: T1, Protein cereblon/Bromodomain-containing protein 9; experiment: PROTAC activity at CRBN/BRD9 in human MV4-11 cells assessed as induction of BRD9 degradation at 0.33 nM in presence of pomalidomide by Western blot analysis; format: cell-based
[30] = molecular target: T1, Protein cereblon/Bromodomain-containing protein 9; experiment: PROTAC activity at CRBN/BRD9 in human MV4-11 cells assessed as induction of BRD9 degradation at 0.33 nM measured after 4 hrs by Western blot analysis relative to control; format: cell-based
MV4-11 [31] = experiment: Induction of apoptosis in human MV4-11 cells assessed as viable cells at 1 nM incubated for 48 hrs by Annexin V-FITC/PI staining based flow cytometric analysis (reference value: 94.80 %); format: functional; conditions: read-out: Activity
[32] = molecular target: T1, Protein cereblon/Bromodomain-containing protein 9; experiment: PROTAC activity at CRBN/BRD9 in human MV4-11 cells assessed as induction of BRD9 degradation at 100 nM by Western blot analysis relative to control; format: cell-based
MV4-11 [33] = experiment: Induction of BRD4 degradation in human MV4-11 cells at 100 nM by Western blot analysis; format: cell-based

For `COc1cc(-c2cn(C)c(=O)c3ccccc23)cc(OC)c1CN1CCC(CN2CCC(c3ccc4c5c(cccc35)C(=O)N4C3CCC(=O)NC3=O)CC2)CC1` (stereo not given), the Activity (MV4-11 [1]) was “Active”, the viability at 0.0001 µM (MV4-11 [2]) was 87.4% and the IC50 (SU-DHL-2) was 38.6 nM. The inhibition in vivo at 20 mg/kg (MV4-11 [3]) was 30.9%, the Activity (MV4-11 [4]) was “Active” and the Activity (MV4-11 [5]) was 0.06%. The T/C (OCI-Ly10 [6]) was about 40%, the Activity (OCI-Ly10 [7]) was 0.56 g and the Activity [8] was “Active”. The Activity (MV4-11 [9]) was 5.74%, the Activity (MV4-11 [10]) was “Active” and the Emax [11] was 97%. The Activity (MV4-11 [12]) was 766 mm3, the Activity [13] was “Time-dependent-effect” and the Activity (MV4-11 [14]) was “inactive”. For the same compound, the Activity [15] was 98.5%, the Activity (MV4-11 [16]) was 16.97% and the Activity (OCI-Ly10 [17]) was 4. For the same compound, the Cmax [18] was 127 ng/mL, the Activity (MV4-11 [19]) was “Active” and the IC50 (MV4-11 [20]) was 0.27 nM. For the same compound, the Activity [21] was 92.5%, the Activity (MV4-11 [22]) was 0.03% and the Activity (Mus musculus [23]) was “Active”. The Activity (MV4-11 [24]) was “Active”, the Activity (Mus musculus [25]) was “Active” and the Activity (MV4-11 [26]) was 4.99. The Activity (MV4-11 [27]) was 9.2%, the Activity (MV4-11 [28]) was 0.9 g and the IC50 (U-937) was 1060 nM. For the same compound, the Activity [29] was “inactive”, the Activity [30] was 92% and the viability at 0.001 µM (MV4-11 [31]) was 80.4%. For the same compound, the Activity [32] was 95% and the Activity (MV4-11 [33]) was “inactive”.
